This assay addresses T1, AR (Homo sapiens, UniProt P10275, T878A).
T1 construct: into the androgen-dependent PCa cells (LNCaP); endogenous in cells; host or cells: LNCaP-ARR2PB-eGFP
T1 sequence (P10275 1-920 T878A): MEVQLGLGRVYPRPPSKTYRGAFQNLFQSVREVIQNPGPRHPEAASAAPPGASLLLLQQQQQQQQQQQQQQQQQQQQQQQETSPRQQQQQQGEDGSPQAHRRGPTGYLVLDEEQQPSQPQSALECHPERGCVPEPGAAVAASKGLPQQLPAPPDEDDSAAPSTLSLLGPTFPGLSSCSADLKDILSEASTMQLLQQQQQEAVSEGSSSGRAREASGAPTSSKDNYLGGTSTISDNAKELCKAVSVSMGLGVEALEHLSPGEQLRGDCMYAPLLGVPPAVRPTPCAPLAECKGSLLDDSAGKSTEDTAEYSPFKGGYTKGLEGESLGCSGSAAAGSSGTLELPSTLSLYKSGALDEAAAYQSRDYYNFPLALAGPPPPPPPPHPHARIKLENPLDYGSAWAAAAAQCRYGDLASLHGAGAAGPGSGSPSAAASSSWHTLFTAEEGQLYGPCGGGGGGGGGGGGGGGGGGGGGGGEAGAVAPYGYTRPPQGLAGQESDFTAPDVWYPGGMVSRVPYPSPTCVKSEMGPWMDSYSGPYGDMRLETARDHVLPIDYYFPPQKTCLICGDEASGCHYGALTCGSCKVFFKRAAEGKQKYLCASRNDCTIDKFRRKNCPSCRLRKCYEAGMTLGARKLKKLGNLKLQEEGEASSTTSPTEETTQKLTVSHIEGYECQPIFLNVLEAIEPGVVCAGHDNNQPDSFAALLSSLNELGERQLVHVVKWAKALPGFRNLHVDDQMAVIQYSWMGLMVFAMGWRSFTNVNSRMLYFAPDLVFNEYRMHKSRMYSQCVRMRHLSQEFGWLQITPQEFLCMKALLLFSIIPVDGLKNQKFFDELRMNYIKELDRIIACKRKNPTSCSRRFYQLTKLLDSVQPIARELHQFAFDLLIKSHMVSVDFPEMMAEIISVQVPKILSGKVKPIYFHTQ
As to the kind of experiment: AR transcriptional activity, LNCaP-ARR2PB-eGFP reporter cells. The class given is cell-based. Conditions: read-out: IC50 AR transcriptional activities. The text has this: Detection principles: We conducted a stable transfection of promoter ARR2PB known for its strong AR responsiveness, into the androgen-dependent PCa cells (LNCaP). The expression of enhanced green fluorescent protein (eGFP) is depending on the degree of activation of AR. Therefore, LNCaP-ARR2PB-eGFP cell line could quantitatively determine the AR antagonistic activities of the compounds by evaluating the expression of eGFP.
As a reminder, the IC50 is the concentration at which inhibition is half-maximal. With `CC(=O)Cc1nsc(NC(=O)c2cc(-c3cccc([N+](=O)[O-])c3)oc2C)n1` [Compound A-2, 2-Methyl-5-(3-nitrophenyl)-N-(3-(2-oxopropyl)-1,2,4-thiadiazol-5-yl)furan-3-carboxamide], the 50% inhibitory concentration (IC50) was 0.04 µM. As to `CC(=O)Cc1nsc(NC(=O)c2cc(-c3cccc(C#N)c3)oc2C)n1` [Compound A-3, 5-(3-Cyanophenyl)-2-methyl-N-(3-(2-oxopropyl)-1,2,4-thiadiazol-5-yl)furan-3-carboxamide], the concentration for half-maximal inhibition (IC50) was found to be 0.32 µM. Consider `COc1cccc(-c2cc(C(=O)Nc3nc(CC(C)=O)ns3)c(C)o2)c1` [Compound A-4, 5-(3-Methoxyphenyl)-2-methyl-N-(3-(2-oxopropyl)-1,2,4-thiadiazol-5-yl)furan-3-carboxamide], for which the IC50 worked out at 0.35 µM. As for `CC(=O)Cc1nsc(NC(=O)c2cc(-c3ccccc3)oc2C)n1` [Compound A-5, 2-Methyl-N-(3-(2-oxopropyl)-1,2,4-thiadiazol-5-yl)-5-phenylfuran-3-carboxamide], the IC50 was found to be 0.95 µM. For the molecule `CCOc1cccc(-c2cc(C(=O)Nc3nc(CC(C)=O)ns3)c(C)o2)c1` [Compound A-6, 5-(3-Ethoxyphenyl)-2-methyl-N-(3-(2-oxopropyl)-1,2,4-thiadiazol-5-yl)furan-3-carboxamide], the IC50 was determined as 0.13 µM. With `CC(=O)Cc1nsc(NC(=O)c2cc(-c3cccc(F)c3)oc2C)n1` [Compound A-7, 5-(3-Fluorophenyl)-2-methyl-N-(3-(2-oxopropyl)-1,2,4-thiadiazol-5-yl)furan-3-carboxamide], the IC50 was 1.16 µM. With `CC(=O)Cc1nsc(NC(=O)c2cc(-c3cccc(Cl)c3)oc2C)n1` [Compound A-8, 5-(3-Chlorophenyl)-2-methyl-N-(3-(2-oxopropyl)-1,2,4-thiadiazol-5-yl)furan-3-carboxamide], the IC50 was determined as 1.71 µM. Consider `CC(=O)Cc1nsc(NC(=O)c2cc(-c3cccc(Br)c3)oc2C)n1` [Compound A-9, 5-(3-Bromophenyl)-2-methyl-N-(3-(2-oxopropyl)-1,2,4-thiadiazol-5-yl)furan-3-carboxamide], for which the half-inhibitory concentration (IC50) worked out at 2.36 µM. Regarding `CC(=O)Cc1nsc(NC(=O)c2cc(-c3ccc(Cl)c(Cl)c3)oc2C)n1` [Compound A-10, 5-(3,4-Dichlorophenyl)-2-methyl-N-(3-(2-oxopropyl)-1,2,4-thiadiazol-5-yl)furan-3-carboxamide], the IC50 came out at 1.24 µM. For `CC(=O)Cc1nsc(NC(=O)c2cc(-c3cccc4ccccc34)oc2C)n1` [Compound A-11, 2-Methyl-5-(naphthalen-1-yl)-N-(3-(2-oxopropyl)-1,2,4-thiadiazol-5-yl)furan-3-carboxamide], the IC50 was 4.24 µM. Then `CC(=O)Cc1nsc(NC(=O)c2cc(-c3ccc4ccccc4c3)oc2C)n1` [Compound A-12, 2-Methyl-5-(naphthalen-2-yl)-N-(3-(2-oxopropyl)-1,2,4-thiadiazol-5-yl)furan-3-carboxamide], with 3.17 µM; and `CC(=O)Cc1nsc(NC(=O)c2cc(-c3cccc(OC(F)(F)F)c3)oc2C)n1` [Compound A-13, 2-Methyl-N-(3-(2-oxopropyl)-1,2,4-thiadiazol-5-yl)-5-(3-(trifluoromethoxy)phenyl)furan-3-carboxamide], with 0.48 µM; and `CC(=O)Cc1nsc(NC(=O)c2cc(-c3cccc(OC(F)F)c3)oc2C)n1` [Compound A-14, 5-(3-(Difluoromethoxy)phenyl)-2-methyl-N-(3-(2-oxopropyl)-1,2,4-thiadiazol-5-yl)furan-3-carboxamide], with 0.05 µM. As to `CC(=O)Cc1nsc(NC(=O)c2cc(-c3cccc(N)c3)oc2C)n1` [Compound A-24, 5-(3-Aminophenyl)-2-methyl-N-(3-(2-oxopropyl)-1,2,4-thiadiazol-5-yl)furan-3-carboxamide], the IC50 was found to be 1.62 µM. The value for `CC(=O)Cc1nsc(NC(=O)c2cc(-c3cccc(NC(C)=O)c3)oc2C)n1` [Compound A-25, 5-(3-Acetamidophenyl)-2-methyl-N-(3-(2-oxopropyl)-1,2,4-thiadiazol-5-yl)furan-3-carboxamide] was 13.6 µM; that for `CC(=O)Cc1nsc(NC(=O)c2cc(-c3cccc(O)c3)oc2C)n1` [Compound A-26, 5-(3-Hydroxyphenyl)-2-methyl-N-(3-(2-oxopropyl)-1,2,4-thiadiazol-5-yl)furan-3-carboxamide] was 3.21 µM; that for `CC(=O)Cc1nsc(NC(=O)c2cc(-c3cccc(OC(C)=O)c3)oc2C)n1` [Compound A-27, 3-(5-Methyl-4-((3-(2-oxopropyl)-1,2,4-thiadiazol-5-yl)carbamoyl)furan-2-yl)phenyl acetate] was 5.5 µM. For `CC(=O)Cc1nsc(NC(=O)c2cc(-c3cccc(C(N)=O)c3)oc2C)n1` [Compound A-28, 5-(3-Carbamoylphenyl)-2-methyl-N-(3-(2-oxopropyl)-1,2,4-thiadiazol-5-yl)furan-3-carboxamide], the IC50 amounted to 1.03 µM. Consider `CC(=O)Cc1nsc(NC(=O)c2cc(-c3cccc(C(=O)O)c3)oc2C)n1` [Compound A-29, 3-(5-Methyl-4-((3-(2-oxopropyl)-1,2,4-thiadiazol-5-yl)carbamoyl)furan-2-yl)benzoic acid], for which the IC50 turned out to be 0.94 µM. For the molecule `COC(=O)c1cccc(-c2cc(C(=O)Nc3nc(CC(C)=O)ns3)c(C)o2)c1` [Compound A-30, Methyl 3-(5-methyl-4-((3-(2-oxopropyl)-1,2,4-thiadiazol-5-yl)carbamoyl)furan-2-yl)benzoate], the half-maximal inhibitory concentration (IC50) came out at 5.19 µM.

Take `CC(=O)Cc1nsc(NC(=O)c2cc(-c3cccnc3)oc2C)n1` [Compound A-31, 2-Methyl-N-(3-(2-oxopropyl)-1,2,4-thiadiazol-5-yl)-5-(pyridin-3-yl)furan-3-carboxamide]: the IC50 was found to be 6.33 µM. Turning to `[2H]c1c(-c2cccc(C(F)(F)F)c2)oc(C)c1C(=O)Nc1nc(CC(C)=O)ns1` [Compound A-34, 2-Methyl-N-(3-(2-oxopropyl)-1,2,4-thiadiazol-5-yl)-5-(3-(trifluoromethyl)phenyl)furan-4-d-3-carboxamide], the IC50 came out at 0.04 µM. `[2H]c1c(-c2cccc(C#N)c2)oc(C)c1C(=O)Nc1nc(CC(C)=O)ns1` [Compound A-35, 5-(3-Cyanophenyl)-2-methyl-N-(3-(2-oxopropyl)-1,2,4-thiadiazol-5-yl)furan-4-d-3-carboxamide]: the IC50 worked out at 0.72 µM. For the molecule `[2H]c1c(-c2cccc(OC(F)(F)F)c2)oc(C)c1C(=O)Nc1nc(CC(C)=O)ns1` [Compound A-36, 2-Methyl-N-(3-(2-oxopropyl)-1,2,4-thiadiazol-5-yl)-5-(3-(trifluoromethoxy)phenyl)furan-4-d-3-carboxamide], the IC50 is 0.07 µM. Consider `[2H]c1c(-c2cccc(OC(F)F)c2)oc(C)c1C(=O)Nc1nc(CC(C)=O)ns1` [Compound A-37, 5-(3-(Difluoromethoxy)phenyl)-2-methyl-N-(3-(2-oxopropyl)-1,2,4-thiadiazol-5-yl)furan-4-d-3-carboxamide], for which the concentration for half-maximal inhibition (IC50) was determined as 0.03 µM. Then `Cc1oc(-c2cccc(C(F)(F)F)c2)cc1C(=O)Nc1nc(CC(C)N(C)C)ns1` (stereo not drawn) [Compound A-38, N-(3-(2-(dimethylamino)propyl)-1,2,4-thiadiazol-5-yl)-2-methyl-5-(3-(trifluoromethyl)phenyl)furan-3-carboxamide], with 0.09 µM; and `CCN(CC)C(C)Cc1nsc(NC(=O)c2cc(-c3cccc(C(F)(F)F)c3)oc2C)n1` (stereo not drawn) [Compound A-39, N-(3-(2-(diethylamino)propyl)-1,2,4-thiadiazol-5-yl)-2-methyl-5-(3-(trifluoromethyl)phenyl)furan-3-carboxamide], with 0.12 µM; and `Cc1oc(-c2cccc(C(F)(F)F)c2)cc1C(=O)Nc1nc(CC(C)N2CCCC2)ns1` (stereo not drawn) [Compound A-40, 2-Methyl-N-(3-(2-(pyrrolidin-1-yl)propyl)-1,2,4-thiadiazol-5-yl)-5-(3-(trifluoromethyl)phenyl)furan-3-carboxamide], with 0.23 µM. The value for `Cc1oc(-c2cccc(C(F)(F)F)c2)cc1C(=O)Nc1nc(CC(C)N2CCCCC2)ns1` (stereo not drawn) [Compound A-41, 2-Methyl-N-(3-(2-(piperidin-1-yl)propyl)-1,2,4-thiadiazol-5-yl)-5-(3-(trifluoromethyl)phenyl)furan-3-carboxamide] was 0.17 µM. Then `Cc1oc(-c2cccc(C(F)(F)F)c2)cc1C(=O)Nc1nc(CC(C)N2CCOCC2)ns1` (stereo not drawn) [Compound A-42, 2-Methyl-N-(3-(2-morpholinopropyl)-1,2,4-thiadiazol-5-yl)-5-(3-(trifluoromethyl)phenyl) furan-3-carboxamide], with 0.36 µM.

The record behind these values is US20240376091A1, “THIADIAZOLEAMIDE DERIVATIVES AND THEIR APPLICATIONS” (ZHEJIANG UNIVERSITY, priority 2021, published 2024).
